Laboratory results published in patent US8450306B2, “Bradykinin B1-receptor antagonists” (Boehringer Ingelheim International GmbH, priority 2007, dated 2013).

Target: T1, hBK1 receptor (Homo sapiens, UniProt P46663)
T1 construct: expressed in transfected cells; host or cells: CHO cells (membrane homogenate)
T1 sequence (P46663 1-353): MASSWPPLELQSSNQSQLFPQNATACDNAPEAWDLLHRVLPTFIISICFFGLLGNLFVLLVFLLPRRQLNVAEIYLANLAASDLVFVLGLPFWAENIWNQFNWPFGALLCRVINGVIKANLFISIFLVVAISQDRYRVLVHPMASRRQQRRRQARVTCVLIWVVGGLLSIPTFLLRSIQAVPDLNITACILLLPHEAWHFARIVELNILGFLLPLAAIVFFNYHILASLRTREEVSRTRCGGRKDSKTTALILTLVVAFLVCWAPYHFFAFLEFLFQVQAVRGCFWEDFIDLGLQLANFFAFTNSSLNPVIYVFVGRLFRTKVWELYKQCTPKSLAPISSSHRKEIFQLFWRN
Experiment: hBK1 receptor binding
Settings: membranes of CHO cells expressing the hBK1 receptor; radioligand 0.5 to 1.0 nM kallidin (DesArg10, Leu9), [3,4-prolyl-3,43H(N)]; 60 minutes, room temperature
Protocol: Description of the Method of hBK1 Receptor Binding
CHO cells expressing the hBK1 receptor are cultivated in Dulbecco's modified medium. The medium from confluent cultures is removed and the cells are washed with PBS buffer, scraped off and isolated by centrifugation. The cells are then homogenized in suspension and the homogenate is centrifuged and resuspended. The protein content is determined and the membrane preparation obtained in this manner is then frozen at −80° C.
After thawing, 200 μl of the homogenate (50 to 100 μg of proteins/assay) are incubated at room temperature with 0.5 to 1.0 nM of kallidin (DesArg10, Leu9), [3,4-prolyl-3,43H(N)] and increasing concentrations of the test substance in a total volume of 250 μl for 60 minutes. The incubation is terminated by rapid filtration through GF/B glass fibre filters which had been pretreated with polyethyleneimine (0.3%). The protein-bound radioactivity is measured in a TopCount NXT. Non-specific binding is defined as radioactivity bound in the presence of 1.0 μM of kallidin (DesArg10, Leu9), [3,4-prolyl-3,43H(N)]. The concentration/binding curve is analysed using a computer-assisted nonlinear curve fitting. The K which corresponds to the test substance is determined using the data obtained in this manner. […]

- Ki: 1.04 nM
Compound: COc1cc(C)c(S(=O)(=O)N(C)CCOCC(=O)N(C)[C@@H]2CCN(C3CCN(C)CC3)C2)c(C)c1 [(394)]
